Reference: publication PMC8364686, “Safety, tolerability, pharmacokinetics and pharmacodynamics of single oral doses of BI 187004, an inhibitor of 11beta-hydroxysteroid dehydrogenase-1, in healthy male volunteers with overweight or obesity” (Clinical Diabetes and Endocrinology, 2021)

Assay: Plasma pharmacokinetics of BI 187004 after single oral doses (LC–MS/MS)
Conditions: male, human, plasma, po; for concentration at 36 h: planned time 36 h; for concentration at 48 h: planned time 48 h; for concentration at 72 h: planned time 72 h; for concentration at 96 h: planned time 96 h; for concentration at 0.5 h: planned time 0.5 h; for concentration at 1 h: planned time 1 h; for concentration at 1.5 h: planned time 1.5 h; for concentration at 2 h: planned time 2 h; for concentration at 2.5 h: planned time 2.5 h; for concentration at 3 h: planned time 3 h; for concentration at 4 h: planned time 4 h; for concentration at 5 h: planned time 5 h; for concentration at 6 h: planned time 6 h; for concentration at 8 h: planned time 8 h; for concentration at 10 h: planned time 10 h; for concentration at 12 h: planned time 12 h
[1] = 160 mg, BI 187004 plasma concentrations, 160 mg single oral, Max
[2] = 160 mg, BI 187004 plasma concentrations, 160 mg single oral, Mean
[3] = 160 mg, BI 187004 plasma concentrations, 160 mg single oral, Median
[4] = 160 mg, BI 187004 plasma concentrations, 160 mg single oral, Min
[5] = 160 mg, BI 187004 plasma concentrations, 160 mg single oral, gMean
[6] = 240 mg, BI 187004 plasma concentrations, Max, 240 mg single oral
[7] = 240 mg, BI 187004 plasma concentrations, Mean, 240 mg single oral
[8] = 240 mg, BI 187004 plasma concentrations, Median, 240 mg single oral
[9] = 240 mg, BI 187004 plasma concentrations, Min, 240 mg single oral
[10] = 240 mg, BI 187004 plasma concentrations, gMean, 240 mg single oral

Experimental: This was a randomized, double-blind, placebo-controlled, single rising dose study conducted at a single center in Germany. […] Follow-up on an ambulatory basis was performed between 11 and 15 days after study drug administration. […] At the time of use the oral solution for dosing was prepared using the PFOS and a co-supplied aqueous solvent containing HP-beta-cyclodextrin 100 mg/mL. The lowest dose level solutions were prepared by further dilution of the lower concentration solution with additional solvent.
For each accepted run, the acceptance criteria for the calibration standards and quality controls were met.

With `N#Cc1ccc2c(c1)[C@H]1CCCN(C(=O)c3ccc4[nH]cnc4c3)[C@H]1C2` [BI 187004] the concentration at 36 h [1] was 1390 nM, the concentration at 36 h [2] was 716 nM and the concentration at 36 h [3] was 604 nM. It also gave a concentration at 36 h [4] of 476 nM, a concentration at 36 h [5] of 669 nM and a concentration at 48 h [1] of 1000 nM. It also gave a concentration at 48 h [2] of 457 nM, a concentration at 48 h [3] of 352 nM and a concentration at 48 h [4] of 329 nM. The concentration at 48 h [5] was 414 nM, the concentration at 72 h [1] was 312 nM and the concentration at 72 h [2] was 139 nM. The concentration at 72 h [3] was 108 nM, the concentration at 72 h [4] was 85.9 nM and the concentration at 72 h [5] was 125 nM. The concentration at 96 h [1] was 46.8 nM, the concentration at 96 h [2] was 33.8 nM and the concentration at 96 h [3] was 31.7 nM. The concentration at 96 h [4] was 28 nM, the concentration at 96 h [5] was 33.2 nM and the concentration at 96 h (160 mg, BI 187004 plasma concentrations, 160 mg single oral, individual subjects) was 30.2 nM. The concentration at 24 h (160 mg, C24 gMean (%gCV), 160 mg single oral dose) was 1630 nM, the AUC(0-inf) (240 mg) was 109 µM·h and the AUC(0-t) (240 mg) was 71.7 µM·h. For the same molecule, the Cmax (240 mg) was 7120 nM, the Tmax (240 mg) was 1 h and the Vd/F (240 mg) was 124 L. The half-life (240 mg) was 13.4 h, the concentration at 24 h (240 mg, BI 187004 plasma concentrations, 240 mg single oral, planned time 24 h, individual subjects) was 2180 nM and the concentration at 0.5 h [6] was 8440 nM. For the same molecule, the concentration at 1 h [6] was 10700 nM, the concentration at 1.5 h [6] was 9030 nM and the concentration at 2 h [6] was 9220 nM. It also gave a concentration at 2.5 h [6] of 8510 nM, a concentration at 3 h [6] of 6980 nM and a concentration at 4 h [6] of 8420 nM. It also gave a concentration at 5 h [6] of 6780 nM, a concentration at 6 h [6] of 6370 nM and a concentration at 8 h [6] of 5380 nM. The concentration at 10 h [6] was 5800 nM, the concentration at 12 h [6] was 3900 nM and the concentration at 24 h (240 mg, BI 187004 plasma concentrations, Max, 240 mg single oral, planned time 24 h) was 2630 nM. The concentration at 36 h [6] was 1340 nM, the concentration at 48 h [6] was 794 nM and the concentration at 72 h [6] was 323 nM. For the same molecule, the concentration at 96 h [6] was 181 nM, the concentration at 0.5 h [7] was 5210 nM and the concentration at 1 h [7] was 7490 nM. The concentration at 1.5 h [7] was 6420 nM, the concentration at 2 h [7] was 6260 nM and the concentration at 2.5 h [7] was 6300 nM. For the same molecule, the concentration at 3 h [7] was 5150 nM, the concentration at 4 h [7] was 5510 nM and the concentration at 5 h [7] was 4780 nM. It also gave a concentration at 6 h [7] of 4330 nM, a concentration at 8 h [7] of 3850 nM and a concentration at 10 h [7] of 3450 nM. For the same molecule, the concentration at 12 h [7] was 2590 nM, the concentration at 24 h (240 mg, BI 187004 plasma concentrations, Mean, 240 mg single oral, planned time 24 h) was 2170 nM and the concentration at 36 h [7] was 926 nM. For the same molecule, the concentration at 48 h [7] was 508 nM, the concentration at 72 h [7] was 157 nM and the concentration at 96 h [7] was 63.9 nM. The concentration at 0.5 h [8] was 5530 nM, the concentration at 1 h [8] was 8430 nM and the concentration at 1.5 h [8] was 6890 nM. It also gave a concentration at 2 h [8] of 6780 nM, a concentration at 2.5 h [8] of 7270 nM and a concentration at 3 h [8] of 5840 nM. It also gave a concentration at 4 h [8] of 5680 nM, a concentration at 5 h [8] of 5430 nM and a concentration at 6 h [8] of 5270 nM. It also gave a concentration at 8 h [8] of 4370 nM, a concentration at 10 h [8] of 3700 nM and a concentration at 12 h [8] of 2890 nM. It also gave a concentration at 24 h (240 mg, BI 187004 plasma concentrations, Median, 240 mg single oral, planned time 24 h) of 2320 nM, a concentration at 36 h [8] of 887 nM and a concentration at 48 h [8] of 461 nM. It also gave a concentration at 72 h [8] of 98.9 nM, a concentration at 96 h [8] of 36.4 nM and a concentration at 0.5 h [9] of 130 nM. It also gave a concentration at 1 h [9] of 440 nM, a concentration at 1.5 h [9] of 811 nM and a concentration at 2 h [9] of 543 nM. It also gave a concentration at 2.5 h [9] of 605 nM, a concentration at 3 h [9] of 388 nM and a concentration at 4 h [9] of 575 nM. For the same molecule, the concentration at 5 h [9] was 494 nM, the concentration at 6 h [9] was 452 nM and the concentration at 8 h [9] was 181 nM. For the same molecule, the concentration at 10 h [9] was 313 nM, the concentration at 12 h [9] was 258 nM and the concentration at 24 h (240 mg, BI 187004 plasma concentrations, Min, 240 mg single oral, planned time 24 h) was 1530 nM. For the same molecule, the concentration at 36 h [9] was 567 nM, the concentration at 48 h [9] was 255 nM and the concentration at 72 h [9] was 54.1 nM. The concentration at 96 h [9] was 15.8 nM, the concentration at 0.5 h [10] was 3180 nM and the concentration at 1 h [10] was 5340 nM. For the same molecule, the concentration at 1.5 h [10] was 5150 nM, the concentration at 2 h [10] was 4710 nM and the concentration at 2.5 h [10] was 4840 nM. It also gave a concentration at 3 h [10] of 3840 nM, a concentration at 4 h [10] of 4280 nM and a concentration at 5 h [10] of 3700 nM.
